Source: ChEMBL document CHEMBL1201862, “PubChem BioAssay data set” (2004)
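Grown in 96-well plates, cells were treated for 48 hours with each compound at five concentrations. Insufficient inhibition: endpoint recorded as highest concentration tested. GI50: concentration for 50% inhibition of growth.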 The source made the active and inactive calls. Cut-off read from the data, not from the text of the source: active = GI50 up to about 1.1 µM and inactive = higher.

What was measured:
Assay in all cases: DTP human tumour cell line panel, 48 h
MDA-MB-435 = test system: MDA-MB-435
MOLT-4 = test system: MOLT-4
HOP-92 = test system: HOP-92
HL-60 = test system: HL-60
UACC-257 = test system: UACC-257
ACHN = test system: ACHN
Malme-3M = test system: Malme-3M
SK-MEL-2 = test system: SK-MEL-2
OVCAR-4 = test system: OVCAR-4
HCC 2998 = test system: HCC 2998
OVCAR-5 = test system: OVCAR-5
U-251 = test system: U-251
CCRF-CEM = test system: CCRF-CEM
NCI-H226 = test system: NCI-H226
MDA-MB-231 = test system: MDA-MB-231
IGROV-1 = test system: IGROV-1
SK-MEL-28 = test system: SK-MEL-28
MCF7 = test system: MCF7
SK-OV-3 = test system: SK-OV-3

SMILES	GI50 (MDA-MB-435)	GI50 (MOLT-4)	GI50 (HOP-92)	GI50 (HL-60)	GI50 (UACC-257)	GI50 (ACHN)	GI50 (Malme-3M)	GI50 (SK-MEL-2)	GI50 (OVCAR-4)	GI50 (HCC 2998)	GI50 (OVCAR-5)	GI50 (U-251)	GI50 (CCRF-CEM)	GI50 (NCI-H226)	GI50 (MDA-MB-231)	GI50 (IGROV-1)	GI50 (SK-MEL-28)	GI50 (MCF7)	GI50 (SK-OV-3)
O=C1C=CC(=C(c2ccccc2)c2ccc(O)cc2)C=C1	15.7 µM (inactive)	3.33 µM (inactive)	18 µM (inactive)	8.15 µM (inactive)	16.9 µM (inactive)	19.4 µM (inactive)	13.6 µM (inactive)	15.8 µM (inactive)	14.3 µM (inactive)	31.1 µM (inactive)	20.3 µM (inactive)	12.4 µM (inactive)	1.16 µM (inactive)	19.5 µM (inactive)	15.2 µM (inactive)	8.41 µM (inactive)	16.1 µM (inactive)	13.4 µM (inactive)	
CCCCN[C@H]1C2C3CC4C5CC(C42)C1(C)C53 (some centres not stated)		> 100 µM (inactive)	> 100 µM (inactive)	> 100 µM (inactive)	> 100 µM (inactive)	> 100 µM (inactive)	> 100 µM (inactive)	> 100 µM (inactive)	> 100 µM (inactive)	> 100 µM (inactive)	> 100 µM (inactive)	> 100 µM (inactive)	> 100 µM (inactive)	> 100 µM (inactive)		> 100 µM (inactive)	> 100 µM (inactive)		> 100 µM (inactive)
CC(C)(C)OC(=O)N1CCCC1C(=O)NCCNc1ccc(NCCNC(=O)C2CCCN2C(=O)OC(C)(C)C)c2c1C(=O)c1ccccc1C2=O (configuration not stated)	14.1 µM (inactive)	9.86 µM (inactive)	13.8 µM (inactive)	> 100 µM (inactive)	14.5 µM (inactive)	15.4 µM (inactive)	15.1 µM (inactive)	20.7 µM (inactive)	15 µM (inactive)	13 µM (inactive)	16.7 µM (inactive)	18.8 µM (inactive)	> 100 µM (inactive)	18.5 µM (inactive)	13.2 µM (inactive)	13.9 µM (inactive)	14.3 µM (inactive)	16.2 µM (inactive)	19.7 µM (inactive)
N#CC(C(=O)CCC(=O)Nc1cccc(Cl)c1)c1ccccc1 (configuration not stated)		> 100 µM (inactive)	> 100 µM (inactive)	> 100 µM (inactive)	> 100 µM (inactive)	> 100 µM (inactive)	> 100 µM (inactive)	> 100 µM (inactive)	> 100 µM (inactive)	> 100 µM (inactive)	> 100 µM (inactive)	> 100 µM (inactive)	> 100 µM (inactive)	> 100 µM (inactive)		> 100 µM (inactive)	> 100 µM (inactive)		> 100 µM (inactive)
CC(=O)OC1(C#N)CC2OC1C1C2N1C(=O)c1ccccc1 (configuration not stated)		> 100 µM (inactive)	> 100 µM (inactive)	> 100 µM (inactive)		> 100 µM (inactive)	> 100 µM (inactive)	> 100 µM (inactive)	> 100 µM (inactive)	> 100 µM (inactive)	> 100 µM (inactive)	> 100 µM (inactive)	> 100 µM (inactive)	> 100 µM (inactive)		> 100 µM (inactive)	> 100 µM (inactive)		> 100 µM (inactive)
COc1ccc(CCN2CCC(C#N)(c3ccc(OC)c(OC)c3)CC2)cc1OC		> 100 µM (inactive)	13.5 µM (inactive)	> 100 µM (inactive)	> 100 µM (inactive)	> 100 µM (inactive)	> 100 µM (inactive)	> 100 µM (inactive)	> 100 µM (inactive)	> 100 µM (inactive)	> 100 µM (inactive)	> 100 µM (inactive)	> 100 µM (inactive)	> 100 µM (inactive)		> 100 µM (inactive)	> 100 µM (inactive)		> 100 µM (inactive)
COc1cccc(N2C(=O)C3c4[nH]c5ccc(C)cc5c4C4CCC(C)CC4C3C2=O)c1 (configuration not stated)	> 100 µM (inactive)	> 10 µM (inactive)	34 µM (inactive)	10.6 µM (inactive)	> 100 µM (inactive)	> 100 µM (inactive)	> 100 µM (inactive)	24.5 µM (inactive)		> 100 µM (inactive)	> 100 µM (inactive)	51.3 µM (inactive)	31.7 µM (inactive)	> 100 µM (inactive)	26.5 µM (inactive)	89.5 µM (inactive)	> 100 µM (inactive)	> 100 µM (inactive)	30.3 µM (inactive)
COc1ccccc1NC(=S)N/N=C/c1cccc(C)n1	5.16 µM (inactive)	1.34 µM (inactive)	8.09 µM (inactive)	3.15 µM (inactive)	3.33 µM (inactive)	2.71 µM (inactive)	6.24 µM (inactive)	5.64 µM (inactive)	14.2 µM (inactive)	10.5 µM (inactive)	> 27.4 µM (inactive)	4.26 µM (inactive)	0.422 µM (active)	5.82 µM (inactive)	3.52 µM (inactive)	4.06 µM (inactive)	8.53 µM (inactive)	3.78 µM (inactive)	6.55 µM (inactive)
